Measured values published in patent publication US20180015066A1, “DRUG COMPLEXES COMPRISING ALPHA-FETOPROTEIN” (UNIVERSITY HEALTH NETWORK, priority 2015, published 2018).

Test system: cell lines carrying AFP receptor
Assay: Anti-cancer activities: in vitro antiproliferative assay (IC50)
Format: cell-based
Conditions: samples in PBS pH 7.4; concentration expressed as Pac or Pac-succinate; read-out: IC50 ± std. error (nM) for Pac or Pac-succinate

Molecule | IC50
paclitaxel succinate [Paclitaxel-Succinate] | 26.5 ± 11.3 nM
CC(=O)O[C@H]1C(=O)[C@@]2(C)[C@H]([C@H](OC(=O)c3ccccc3)[C@]3(O)C[C@H](OC(=O)[C@H](O)[C@@H](NC(=O)c4ccccc4)c4ccccc4)C(C)=C1C3(C)C)[C@]1(OC(C)=O)CO[C@@H]1C[C@@H]2O [Paclitaxel] | 3.4 ± 0.8 nM
